Consider seven molecules from US20050043396A1, “5-Benzoylamino-1,3-dioxacyclanes, the method for preparing the same and their use as PKC inhibitor” (priority 2003, published 2005).

This assay deals with model of the ear swilling of mice. The experiment in a line: Anti-inflammatory activity: xylene-induced ear swelling of mice (recognized PKC inhibitor model). It is filed as in vivo, Male Kunming species mice. The method, then: Based on the knowledge of cycloacetals as structural types of the PKC inhibitors, the PKC inhibitor model recognized (i.e. model of the ear swilling of mice) was adopted to evaluate the activity of cycloacetals 1-21 as PKC inhibitor.
In the present invention the model of the ear swilling of mice was used to evaluate the anti-inflammatory activity of 5-benzoylamino-1,3-dioxscyclane compounds. The compounds of the present invention were suspended in CMC solution (5%) at the ratio of […], while the positive control was the suspension of aspirin, and CMC solution (5%) at the ratio of […], and the vehicle control was CMC solution (5%). Male Kunming species mice (from Animal Department of Beijing Medical University, grade 2) with weight about 20-25 g, which were randomly divided into treatment group, vehicle control group, and positive control group with 10 mice each group (food deprivation for 8 hours before testing, drinking unlimited) were administered orally once. 30 minutes after the administration, xylene (0.02 ml) was smeared on the left exterior auricular of the mice, and 4 hours later, the mice were killed by dislocation of cervical vertebra. Double circular pinnae were taken from two ears using 9 mm punching bear, and the swelling was determined by the weight variation of the two pinnae.
An adaptation of the method of Gad et al (1986) was employed for sensitization. Mice were allowed to acclimate for a week after arrival in the laboratory, then were screened to remove any from testing which have ears that appear red or swollen. Male Kunming species, 6 to 8 weeks old, about 20-25 g, were shaved and tape stripped at the start of each study. Mice were randomly divided into test group, vehicle control group, and positive control group with 10 mice each one.
[…] The application was allowed to dry before the animal was returned to its cage. Mice were killed 4 hours later, and a 9-mm Keyes cutaneous punch was used to obtain uniform tissue sections for weight variation which indicating the swelling degree. Groups were statistically analyzed using the Wilk-Shapiro test for normality and the paired parametric Student t test with a significance level of p<0.05. Data were expressed as the mean difference plus or minus the standard error.
Each mouse in the vehicle control mice group was administered orally 0.2 ml of carboxymethyl cellulose (0.5%) once a day, while each mouse in the positive control group was administered orally suspension of 0.6 mg of aspirin in 0.2 ml of carboxymethyl cellulose (0.5%) once a day, and each mouse in the test group was administed orally the suspension of 0.6 mg of the compounds of the present invention in 0.2 ml of carboxymethyl cellulose (0.5%) once a day. The applications were repeated for three consecutive days.
Administered with the same manner and dosage.

Where [1] appears, read: administered orally 1 time, 30 mg/kg, n = 10 (Table 2).
Setting [2] is: oral once a day for 3 consecutive days, Dosage = 30 mg/Kg, n = 10, weight difference of 9 mm ear punches, xylene.
Setting [3] is: administered orally 1 time, 21 mg/kg, n = 10 (Table 2).

Marks after values point to notes of the source that are not given here.

Consider `CC(=O)Oc1ccccc1C(=O)O` [Aspirin, aspirin, reference compound], for which the “Weight variation (X ± SD mg)” value is reported as 4.17 ± 1.80^1) mg under setting [1] and 4.26 ± 1.44^1) mg under setting [2].

As for `COC(CC1OCC(NC(=O)c2ccccc2)C(C)O1)OC` (centres unmarked) [Compound 9], the “Weight variation (X ± SD mg)” value by setting is: under setting [1], 3.28 ± 2.06^3,5) mg; under setting [2], 3.97 ± 1.49^1) mg.

As to `COC(CC1OCCC(NC(=O)c2ccccc2)CO1)OC` (centres unmarked) [Compound 18], the “Weight variation (X ± SD mg)” value under setting [3] is reported as 4.31 ± 1.75^1) mg.

Take `C[C@@H]1O[C@@H](c2ccc([N+](=O)[O-])cc2)OC[C@H]1NC(=O)c1ccccc1` [Compound 24, (2S,4S,5R)-2-p-nitrophenyl-5-benzoylamino-4-methyl-1,3-dioxane]: the “Weight variation (X ± SD mg)” value worked out at 3.21 ± 1.68 mg (dosage-effect relationship, 2.3 mg/Kg (Table 3)); 1.81 ± 0.63 mg (dosage-effect relationship, 7 mg/Kg (Table 3)); 1.43 ± 0.89 mg (dosage-effect relationship, 30 mg/Kg (Table 3)).

For `O=CCC1OCC(NC(=O)c2ccccc2)CO1` (centres unmarked) [Compound 38], the “Weight variation (X ± SD mg)” value under setting [1] is 5.81 ± 2.46 mg.

`CC1OC(CC=O)OCC1NC(=O)c1ccccc1` (centres unmarked) [Compound 39]: under setting [1], the “Weight variation (X ± SD mg)” value is on record as 4.84 ± 2.30^1) mg.

On to `O=CCC1OCCC(NC(=O)c2ccccc2)CO1` (centres unmarked) [Compound 40], for which, under setting [3], the “Weight variation (X ± SD mg)” value is listed as 3.55 ± 1.69^3,6) mg.
